Here are results for 2 molecules from patent publication US9193699B2, “Apoptosis inducing compounds” (INSTITUT NATIONAL DE LA SANTE ET DE LA RECHERCHE MEDICALE …, priority 2011, dated 2015).

Holding throughout (assay type): cell-based
Assay [1] deals with Human breast tumor SUM149 cells. The assay can be described thus: Annexin V/7-AAD apoptosis with or without Z-VAD-FMK. As to conditions: 2.5 to 20 μM, 48 h, with Z-VAD-FMK pan-caspases inhibitor. On the procedure:
Human breast tumor SUM149 cells were plated in dishes at a concentration of 10^6 cells/[…] Cells were treated with compound 3 or compound 4 (2.5 to 20 μM) for 48 h, with or without Z-VAD-FMK, a pan-caspases inhibitor. Cells were double stained with annexinV-FITC and 7-AAD to measure cell apoptosis.

Assay [2] concerns Human normal mammary epithelial HME-1 cells. Briefly: Effect on growth of normal cells (alamar blue), HME-1. Conditions: HME1, calculated on the basis of cell growth inhibition. On the procedure:
All biological experiments (Examples 2 to 9) have been performed with recommended cell line specific culture medium. For SUM149 and L226, culture medium is supplemented with 10% Fetal Calf Serum. For HME-1 and MCF-10A, culture medium is supplemented with 5% Horse Serum.
Human normal mammary epithelial HME-1 cells were plated in a 96 well plate at 3000 cells/100 μL at 37° C. in 5% CO2. Serial dilutions of drugs (compounds 1, 3 or 4) ranging from 20 μM to 300 nM were added at day 0 and day 3. The number of viable cells was determined in triplicate at day 5 by incubating 10 μL of the alamar blue staining solution for 2 hours at 37° C. (FIG. 4).
IC50 values of compounds 1-14 for the inhibition of MCF-10A and HME-1 normal cells growth were also measured (according to the experimental procedure of Examples 4 and 5): […]

In assay [3] the test system is caspase-3 and caspase-7 in MCF-10A cells. Briefly: Caspase 3/7 activation (Caspase-Glo 3/7) in MCF-10A normal cells. As to conditions: Homo sapiens, R=RLU at 20 μM/RLU at 0 μM, 24 h, read-out: Caspase 3/7 activation R (RLU fold increase from untreated cells). The method, then: Human normal mammary epithelial MCF-10A cells were plated in a 96 well plate at 10000 cells/100 μL at 37° C. in 5% CO2. Serial dilutions of drugs (compounds 1, 3 or 4) ranging from 20 μM to 300 nM were added at day 0. Active caspase-3 and caspase-7 were measured in triplicate after 24 h treatment by incubating 50 μL of the Caspase-Glo 3/7 reagent for 60 min at 25° C. This reagent containing the proluminescent tetrapeptide sequence DEVD in a cell lysis buffer (Promega) (FIG. 9).
(§1) The calculated values R correspond to Relative Luminescence Units (RLU) fold increase from untreated cells (R=RLU at 20 μM/RLU at 0 μM).
Caspase 3/7 activation in MCF-10A and HME-1 normal cells was also measured.

Assay [4] deals with caspase-3 and caspase-7 in SUM149 cells. Briefly: Caspase 3/7 activation (Caspase-Glo 3/7) in SUM149 tumor cells. As to conditions: Homo sapiens, R=RLU at 20 μM/RLU at 0 μM, 24 h, read-out: Caspase 3/7 activation R (RLU fold increase from untreated cells). On the procedure:
Human breast tumor SUM149 cells were plated in a 96 well plate at 10000 cells/100 μL at 37° C. in 5% CO2. Serial dilutions of drugs (compounds 1, 3 or 4) ranging from 20 μM to 300 nM were added at day 0. Active caspase-3 and caspase-7 were measured in triplicate after 24 h treatment by incubating 50 μL of the Caspase-Glo 3/7 reagent for 60 min at 25° C. This reagent containing the proluminescent tetrapeptide sequence DEVD in a cell lysis buffer (Promega) (FIG. 6).
Caspase 3/7 activation in SUM149 and L226 tumor cells was measured.
as §1

The subject of another assay is Cancer stem cells (CSCs). The assay can be described thus: Aldefluor assay of cancer stem cells (ALDH+ cells), FACS. The method, then:
Cancer stem cells (CSCs) are thought to contribute to tumor initiation, maintenance, resistance to therapy, and metastasis progression. Treatment with drugs enrich in resistant CSCs. In vitro, breast CSCs express high level of aldehyde dehydrogenase-1 (ALDH1), which can be detected by using a commercial assay (CSCs are “Aldefluor” positive). Briefly, cells were incubated in Aldefluor assay buffer containing ALDH substrate (BAAA (BODIPY®—aminoacetaldehyde), 1 μmol/L per 1×10^6 cells). Negative control was done in the presence of diethylaminobenzaldehyde (DEAB), a specific ALDH inhibitor. Cells were then incubated for 40 min at 37° C. Cells were analyzed with the LSRII flow cytometer (Becton-Dickinson). PI (Propidium Iodide) exclusion was used to gate viable cells.

Assay [5] concerns Thirty eight validated cells lines. Briefly: High throughput cell growth analysis on cell line panel. Conditions: panel of cell lines. On the procedure:
Thirty eight validated cells lines, including BXPC3 cells, DU145 cells, OPM2 cells, U-2-OS cells, PLCPRF5 cells, A549 cells, SUM149 cells, HepG2 cells, L389 cells, HGC27 cells, TOV-112D cells, Messa cells, Karpas 299 cells, A498 cells, HCT-116 cells, H1299 cells, Hep2 cells, DLD1 cells, HUT78 cells, AGS cells, A4573 cells, ACHN cells, Panc-1 cells, A375 cells, BT-20 cells, L226 cells, MDAMB231 cells, U118 cells, PC-3 cells, SW579 cells, CLS354-4 cells, Calu-6 cells, U87MG cells, MeWO cells, HUVEC, HME-1 cells, MCF10-A cells and fibroblasts, were plated at 3000 cells/100 μL at 37° C. in 5% CO2 in recommended medium containing 10% FCS.
Compounds 12, 4, 11, 3, 13, 6, 8, 14, 1 and 7, described in the above examples, and DMSO as a control, were tested at various concentrations and % inhibition of cell growth at 10 μM was more particularly studied.

Consider `Cc1cc(C)c(C)c(S(=O)(=O)N2CCSC(C)(C)[C@@H]2C(=O)NO)c1C` [Compound 4, (3S)—N-hydroxy-4-[(2,3,5,6-tetramethylphenyl)sulfonyl]-2,2-dimethyl-3-thiomorpholine carboxamide], for which, in assay [1], the “effect of Z-VAD treatment on compound induced apoptosis (Annexin V positive cells)” value is “fully impaired”. Moreover, in assay [2], the concentration for half-maximal inhibition (IC50) is above 20 µM. The fold induction at 20 µM in assay [3] is 1; in assay [4] it was 4.4.

Consider `Cc1c(C)c(C)c(S(=O)(=O)N2CCSC(C)(C)[C@@H]2C(=O)NO)c(C)c1C` [Compound 12, (3S)—N-hydroxy-4-[(2,3,4,5,6-pentamethylphenyl)sulfonyl]-2,2-dimethyl-3-thiomorpholine carboxamide], for which the IC50 is above 20 µM in assay [2] and below 1 µM in assay [5] (recommended medium containing 10% FCS, read-out: IC50 of cell growth inhibition on cell line panel). Moreover, the “pool of CSC (ALDH+ cells) after treatment” value with Cancer stem cells (CSCs) (0.6 μM, DMSO control 2.6%) worked out at 0.4%. In addition, the “aldefluor ratio (percent ALDH+ cells treated vs DMSO)” value in the assay on Cancer stem cells (CSCs) (FIG. 12B) is recorded as “reduces the aldefluor ratio”. The figures for the fold induction at 20 µM in assay [3] and in assay [4] were 1.1 and 6.8, respectively. Further, the “cell lines studied that were sensitive” value in assay [5] is recorded as 86%.

In general, IC50 refers to the concentration at which inhibition is half-maximal.
